Series [1] relates to Trypsin. The series is described as follows: trypsin in 0.1 M NH4HCO3 buffer (pH 8.2). As to conditions: 37°C, up to 24 h.
Series [2] is described as follows: plasma from healthy volunteers. As to conditions: human, 37°C, up to 36 h.

Entries after “also recorded” stand apart in the source; their conditions may differ. Where no end group is shown, it is not given here. [ ]: non-standard residue; d: D form. 2Thi = N[C@@H](Cc1cccs1)C(=O)O

On to KRLFKKLLKYLRkF, for which the fragment found result in series [1] was “(K) KLLK (Y) 6–9, major, 18 h; also recorded: (R) LFKK (L) 3–6, major, 18 h; also recorded: (K) LLK (Y) 7–9, major, 18 h; also recorded: (K) YLR (k) 10–12, major, 18 h; also recorded: (R) LFK (K) 3–5, major, 18 h; also recorded: (K) YLRkF 10–14, major, 18 h”; in series [2] it was “(K) RLFK(K) 2–5, major, 12 h; also recorded: KRLFKKLLKYL (R) 1–11, major, 12 h; also recorded: (K) RLFKKLLKYLRkF 2–14, major, 12 h”.

Regarding HorRLFKKLLKYLRKThi, the fragment found entry is recorded as “(K) KLLK (Y) 6–9, major, 18 h; also recorded: (R) LFKK (L) 3–6, major, 18 h; also recorded: (K) LLK (Y) 7–9, major, 18 h; also recorded: (K) YLR (K) 10–12, major, 18 h; also recorded: (R) LFK (K) 3–5, major, 18 h” in series [1] and “(R) LFKKLLKYLRKThi 3–14, major, 12 h; also recorded: (Hor) RLFKKLLKYLRKThi 2–14, major, 12 h” in series [2].

DabHorLFDabDabLLDabYLHorDabF: the fragment found result in series [1] is listed as “(Dab) HorLFDab (Dab) 2–5, major, 18 h; also recorded: (Dab) HorLFDabDabLLDab (Y) 2–9, major, 18 h”; in series [2], “(Hor) LFDabDabLLDabYLHorDabF 3–14, major, 12 h; also recorded: (Dab) HorLFDabDabLLDabYLHorDabF 2–14, major, 12 h”.

On to krLFkkLLKYLRkF, for which the fragment found entry is listed as “(K) YLR (k) 10–12, major, 18 h; also recorded: krLFkkLLK (Y) 1–9, major, 18 h; also recorded: (K) YLRkF 10–14, major, 18 h” in series [1] and “(K) YLRkF 10–14, major, 12 h; also recorded: krLFkkLL (K) 1–8, major, 12 h” in series [2].

On to KRLFKKLLKYLRK[2Thi], for which the fragment found result in series [1] was “(K) Thi 14, major, 18 h; also recorded: (K) KLLK (Y) 6–9, major, 18 h; also recorded: (R)LFKK (L) 3–6, major, 18 h; also recorded: (K) LLK (Y) 7–9, major, 18 h; also recorded: (K) YLR (K) 10–12, major, 18 h; also recorded: (R) LFK (K) 3–5, major, 18 h”; in series [2], “(L) FKKLLKYLRKThi 4–14, major, 12 h”.

As to DapHorLFDapDapLLDabYLHorDabF, the fragment found result is “DapHorLFDapDapLLDab (Y) 1–9, major, 18 h; also recorded: DapHorLFDapDapLLDabYLHor (Dab) 1–12, major, 18 h” in series [1] and “(Hor) LFDapDapLLDabYLHorDabF 3–14, major, 12 h; also recorded: (Dap) HorLFDapDapLLDabYLHorDabF 2–14, major, 12 h” in series [2].

Take DabHorLFDabDabLLDabYLRDabF: the fragment found entry in series [1] is given as “(Dab) YLRDab (F) 10–13, major, 18 h; also recorded: (Dab) DabLLDabYLRDab (F) 6–13, major, 18 h; also recorded: (Hor) LFDabDabLLDabYLR (Dab) 3–12, major, 18 h; also recorded: (Dab) HorLFDabDabLLDab (Y) 2–9, major, 18 h; also recorded: DabHorLFDabDabLLDabYLR (Dab) 1–12, major, 18 h”; in series [2], “(Hor) LFDabDabLLDabYLRDabF, major, 12 h”.
